As to `Cn1c(-c2ccc([N+](=O)[O-])cc2)cnc1[C@H](Cc1ccccn1)N(C=O)c1cc2cc(F)ccc2o1` [Example 63, (1S)-(5-Fluorobenzo[b]furan-2-yl)-N-[1-[1-methyl-5-(4-nitrophenyl)imidazol-2-yl]-2-(2-pyridyl)ethyl]formamide], the melting point was 207 to 208 °C.

Take `Cc1nccn1-c1ccc(-c2cnc([C@H](Cc3ccccn3)N(C=O)c3cc4ccccc4[nH]3)n2C)cc1` [Example 14, (1S)-(Indol-2-yl)-N-[1-[1-methyl-5-[4-(2-methylimidazol-1-yl)-phenyl]imidazol-2-yl]-2-(2-pyridyl)ethyl]formamide]: the melting point lay within 207 to 211 °C.

On to `Cn1c(-c2ccc(-n3ccnc3)cc2)cnc1[C@H](Cc1ccccn1)N(C=O)c1cc2cc(C#N)ccc2o1` [Example 25, (1S)-(5-Cyanobenzo[b]furan-2-yl)-N-[1-[5-[4-(1-imidazolyl)-phenyl]-1-methylimidazol-2-yl]-2-(2-pyridyl)ethyl]formamide], for which the melting point is 174 to 176 °C.

For `Cn1c(-c2ccc(-c3cccs3)cc2)cnc1[C@H](Cc1ccccn1)N(C=O)c1cc2cc(Cl)ccc2o1` [Example 17, (1S)-(5-Chlorobenzo[b]furan-2-yl)-N-[1-[1-methyl-5-[4-(2-thienyl)-phenyl]imidazol-2-yl]-2-(2-pyridyl)ethyl]formamide], the melting point is 110 to 114 °C.

`Cn1c(-c2ccc(N3CCOCC3)cc2)cnc1[C@H](Cc1ccccn1)N(C=O)c1nc2cc(Cl)ccc2s1` [Example 6, (1S)-(5-Chlorobenzothiazol-2-yl)-N-[1-[1-methyl-5-(4-morpholinophenyl)imidazol-2-yl]-2-(2-pyridyl)ethyl]formamide] registered a melting point of 96 to 99 °C.

For `Cn1c(-c2ccc(N3CCOCC3)c(F)c2)cnc1[C@H](Cc1ccccn1)N(C=O)c1cc2cc(Cl)ccc2o1` [Example 19, (1S)-(5-Chlorobenzo[b]furan-2-yl)-N-[1-[5-(3-fluoro-4-morpholinophenyl)-1-methylimidazol-2-yl]-2-(2-pyridyl)ethyl]formamide], the melting point was in the range of 134 to 135 °C.

Regarding `Cc1nccn1-c1ccc(-c2cnc([C@H](Cc3ccccn3)N(C=O)c3cc4cc(Cl)ccc4o3)n2C)cc1` [Example 70, (1S)-(5-Chlorobenzo[b]furan-2-yl)-N-[1[-1-methyl-5-[4-(2-methylimidazol-1-yl)phenyl]imidazol-2-yl]-2-(2-pyridyl)ethyl]formamide], the melting point lay in the range of 159 to 161 °C.

`Cn1c(-c2ccc(-n3ccnc3)cc2)cnc1[C@H](Cc1ccccn1)N(C=O)c1cc2ccccc2s1` [Compound (c), (1S)-(benzo[b]thiophen-2-yl)-N-[1-[5-[4-(1-imidazolyl) -phenyl]-1-methylimidazol-2-yl]-2-(2-pyridyl)ethyl]formamide] yielded a melting point of 190 to 193 °C.

Compound `Cn1c(-c2ccc(-c3ccccn3)cc2)cnc1[C@H](Cc1ccccn1)N(C=O)c1cc2cc(Cl)ccc2o1` [Example 36, (1S)-(5-Chlorobenzo[b]furan-2-yl)-N-[1-[1-methyl-5-[4-(2-pyridyl)-phenyl]imidazol-2-yl]-2-(2-pyridyl)ethyl]formamide] returned a melting point of 175 to 180 °C.

`Cc1ccc2oc(N(C=O)[C@@H](Cc3ccccn3)c3ncc(-c4ccc(N5CCOCC5)cc4)n3C)cc2c1` [Example 5, (1S)-(5-Methylbenzo[b]furan-2-yl)-N-[1-[1-methyl-5-(4-morpholinophenyl)imidazol-2-yl]-2-(2-pyridyl)ethyl]formamide] came in with a melting point of 125 to 127 °C.

`CCn1c(-c2ccc(-n3ccnc3)cc2)cnc1[C@H](Cc1ccccn1)N(C=O)c1cc2cc(C(F)(F)F)ccc2o1` [Example 29, (1S)-N-[1-[1-Ethyl-5-[4-(1-imidazolyl)phenyl]imidazol-2-yl]-2-(2-pyridyl)ethyl][5-(trifluoromethyl)benzo[b]furan-2-yl]formamide] came in with a melting point of 85 to 89 °C.

Consider `Cn1c(-c2ccc(N3CCOCC3)cc2)cnc1[C@H](Cc1ccccn1)N(C=O)c1cc2cc(F)ccc2o1` [Example 4, (1S)-(5-Fluorobenzo[b]furan-2-yl)-N-[1-[1-methyl-5-(4-morpholinophenyl)imidazol-2-yl]-2-(2-pyridyl)ethyl]formamide], for which the melting point lay within 130 to 132 °C.

In turn, `Cn1c(-c2ccc(-c3nccs3)cc2)cnc1[C@H](Cc1ccccn1)N(C=O)c1cc2cc(Cl)ccc2o1` [Example 18, (1S)-(5-Chlorobenzo[b]furan-2-yl)-N-[1-[1-methyl-5-[4-(2-thiazolyl)phenyl]imidazol-2-yl]-2-(2-pyridyl)ethyl]formamide] returned a melting point of 144 to 146 °C.

`Cn1c(-c2ccc(-c3ccncc3)cc2)cnc1[C@H](Cc1ccccn1)N(C=O)c1cc2cc(Cl)ccc2o1` [Example 37, (1S)-(5-Chlorobenzo[b]furan-2-yl)-N-[1-[1-methyl-5-[4-(4-pyridyl)-phenyl]imidazol-2-yl]-2-(2-pyridyl)ethyl]formamide] registered a melting point of 135 to 140 °C.

For `Cn1c(-c2ccc(-c3ccccc3)cc2)cnc1[C@H](Cc1ccccn1)N(C=O)c1cc2cc(Cl)ccc2o1` [Example 10, (1S)-N-[1-[5-(4-Biphenylyl)-1-methylimidazol-2-yl]-2-(2-pyridyl)-ethyl](5-chlorobenzo[b]furan-2-yl)formamide], the melting point was in the range of 171 to 174 °C.

`CCCn1c(-c2ccc(-n3ccnc3)cc2)cnc1[C@H](Cc1ccccn1)N(C=O)c1cc2cc(F)ccc2o1` [Example 56, (1S)-(5-Fluorobenzo[b]furan-2-yl)-N-[1-[5-[4-(1-imidazolyl)-phenyl]-1-propylimidazol-2-yl]-2-(2-pyridyl)ethyl]formamide] yielded a melting point of 77 to 81 °C.

In turn, `Cc1nc([C@H](Cc2ccccn2)N(C=O)c2cc3ccccc3[nH]2)n(C)c1-c1ccc(-n2ccnc2)cc1` [Example 23, (1S)-N-[1-[5-[4-(1-Imidazolyl)phenyl]-1,4-dimethylimidazol-2-yl]-2-(2-pyridyl)ethyl](indol-2-yl)formamide] had a melting point of 156 to 157 °C.

`CCn1c(-c2ccc(-n3ccnc3)cc2)cnc1[C@H](Cc1ccccn1)N(C=O)c1cc2cc(Cl)ccc2o1.Cl.Cl.Cl` gave a melting point of 198 to 203 °C.

For the compound `Cn1c(-c2ccc(-n3ccnc3)cc2)cnc1[C@H](Cc1ccccn1)N(C=O)c1cc2cc([N+](=O)[O-])ccc2o1` [Example 50, (1S)-N-[1-[5-[4-(1-Imidazolyl)phenyl]-1-methylimidazol-2-yl]-2-(2-pyridyl)ethyl](5-nitrobenzo[b]furan-2-yl)formamide], the melting point fell in the range of 221 to 223 °C.

Compound `Cn1c(-c2ccc(-n3ccnc3)cc2)cnc1[C@H](Cc1ccccn1)N(C=O)c1cc2cc(Br)ccc2o1` [Example 46, (1S)-(5-Bromobenzo[b]furan-2-yl)-N-[1-[5-[4-(1-imidazolyl)-phenyl]-1-methylimidazol-2-yl]-2-(2-pyridyl)ethyl]formamide] showed a melting point of 197 to 199 °C.

Compound `Cn1c(-c2ccc(-n3ccnc3)cc2)cnc1[C@H](Cc1ccccn1)N(C=O)c1cc2cc(Cl)ccc2o1` [Example 49, (1S)-(5-Chlorobenzo[b]furan-2-yl)-N-[1-[5-[4-(1-imidazolyl)-phenyl]-1-methylimidazol-2-yl]-2-(2-pyridyl)ethyl]formamide] registered a melting point of 63 to 73 °C.

Consider `Cn1c(-c2ccc(-c3cccnc3)cc2)cnc1[C@H](Cc1ccccn1)N(C=O)c1cc2cc(Br)ccc2o1` [Example 35, (1S)-(5-Bromobenzo[b]furan-2-yl)-N-[1-[1-methyl-5-[4-(3-pyridyl)-phenyl]imidazol-2-yl]-2-(2-pyridyl)ethyl]formamide], for which the melting point fell in the range of 168 to 171 °C.

`Cn1c(-c2ccc(-c3ccco3)cc2)cnc1[C@H](Cc1ccccn1)N(C=O)c1cc2cc(Cl)ccc2o1` [Example 16, (1S)-(5-Chlorobenzo[b]furan-2-yl)-N-[1-[5-[4-(2-furyl)phenyl]-1-methylimidazol-2-yl]-2-(2-pyridyl)ethyl]formamide] registered a melting point of 144 to 146 °C.

As for `CCCn1c(-c2ccc(-n3ccnc3)cc2)cnc1[C@H](Cc1ccncc1)n1c(NC=O)cc2ccccc21` [Example 52, (1S)-N-[1-[5-[4-(1-Imidazolyl)phenyl]-1-propylimidazol-2-yl]-2-(4-pyridyl)ethyl](indol-2-yl) formamide], the melting point was 238 to 240 °C (dec.).

For `Cn1c(-c2ccc(-n3ccnc3)cc2)cnc1[C@H](Cc1ccccn1)N(C=O)c1cc2cccnc2o1` [Example 27, (1S)-(Furo[2,3-b]pyridin-2-yl)-N-[1-[5-[4-(1-imidazolyl)phenyl]-1-methylimidazol-2-yl]-2-(2-pyridyl)ethyl]formamide], the melting point is 108 to 110 °C.

In turn, `Cn1c(-c2ccc(-n3cnc4ccccc43)cc2)cnc1[C@H](Cc1ccccn1)N(C=O)c1cc2ccccc2[nH]1` [Example 31, (1S)-N-[1-[5-[4-(1-Benzimidazolyl)phenyl]-1-methylimidazol-2-yl]-2-(2-pyridyl)ethyl](indol-2-yl)formamide] showed a melting point of 233 to 237 °C.

The compound `Cn1c(-c2ccc(-n3ccnc3)cc2)cnc1[C@H](Cc1ccccn1)N(C=O)c1cc2cc(C=O)ccc2o1` [Example 24, (1S)-(5-Formylbenzo[b]furan-2-yl)-N-[1-[5-[4-(1-imidazolyl)-phenyl]-1-methylimidazol-2-yl]-2-(2-pyridyl)ethyl]formamide] returned a melting point of 194 to 197 °C.

The compound `Cn1c(-c2ccc(-n3ccnc3)cc2)cnc1[C@H](Cc1ccccn1)N(C=O)c1cc2cccc(Cl)c2o1` [Example 68, (1S)-(7-Chlorobenzo[b]furan-2-yl)-N-[1-[5-[4-(1-imidazolyl)phenyl]-1-methylimidazol-2-yl]-2-(2-pyridyl)ethyl]formamide] showed a melting point of 182 to 184 °C.

`Cn1c(-c2ccc([N+](=O)[O-])cc2)cnc1[C@H](Cc1ccccn1)N(C=O)c1cc2cc(C(F)(F)F)ccc2o1` [Example 39, (1S)-N-[1-[1-Methyl-5-(4-nitrophenyl)imidazol-2-yl]-2-(2-pyridyl)-ethyl][5-(trifluoromethyl)benzo[b]furan-2-yl]formamide] returned a melting point of 192 to 194 °C.

For the origin of these results see patent publication US20020132809A1, “Heterocyclic carboxamide derivatives as inhibitors of nitric oxide production” (Fujisawa Pharmaceutical Co. Ltd., priority 1998, published 2002).
